The text below walks through data of ChEMBL document CHEMBL1201862, “PubChem BioAssay data set” (2004).

Structures are written as SMILES.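 Dose response: 5 concentrations. Exposure: 48 h. Format: 96-well plates. Endpoint: linear interpolation; highest concentration if not reached. At the GI50, growth is halved.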 Active and inactive are the calls of the source. Cut-off read from the data, not from the text of the source: active = GI50 up to about 1.1 µM and inactive = higher.

Some test systems named below: 786-0; BT-549; CAKI-1; COLO 205; HCT-15; Hs-578T; IGROV-1; KM12; LOX IMVI; NCI-H226; SF-295; SF-539; SK-MEL-2; SK-MEL-5; SW-620; T47D; U-251; UACC-62; UO-31; SNB-75.
Common to all, as to experiment: growth of human tumour cells (NCI), 48 h

With `O=C1CC(c2cccc(F)c2)Nc2cc3c(cc21)OCO3` (stereo not drawn), the GI50 with 786-0 was 0.0468 µM (active); in the assay on BT-549 it was > 10 µM (inactive); in the assay with CAKI-1 it was 0.051 µM (active); in the assay with COLO 205, 0.0292 µM (active); in the assay on HCT-15, 0.0394 µM; in the assay with Hs-578T, < 0.01 µM (active). The GI50 with IGROV-1 was 0.0483 µM (active); in the assay with KM12, 0.0463 µM (active); in the assay on LOX IMVI, 0.0631 µM (active); in the assay on NCI-H226, 0.027 µM (active); in the assay on SF-295, 0.042 µM (active); in the assay with SF-539, 0.0293 µM (active). Besides, the GI50 is 0.0356 µM (active) in the assay with SK-MEL-2; 0.0224 µM (active) in the assay with SK-MEL-5; 0.0393 µM (active) in the assay with SW-620; > 100 µM (inactive) in the assay with T47D; 0.0344 µM (active) in the assay on U-251; 0.0543 µM (active) in the assay on UACC-62. The GI50 in the assay on UO-31 is 0.0422 µM (active).
Take `CCn1c(=O)c2c3ccc(OC(C)=O)cc3[nH]c2c2ccc(OC(C)=O)cc21`: the GI50 with 786-0 is 58.1 µM (inactive); in the assay on BT-549 it was 72.3 µM (inactive); in the assay on CAKI-1, 61.5 µM (inactive); with COLO 205, 30.9 µM (inactive); in the assay on HCT-15, 62.2 µM; in the assay on Hs-578T it was 34.5 µM (inactive). Further, the GI50 with IGROV-1 is 53.1 µM (inactive); with KM12 it was 34.7 µM (inactive); with NCI-H226, 24.8 µM (inactive); in the assay on SF-295 it was 36.1 µM (inactive); in the assay on SF-539, 39 µM (inactive); in the assay with SK-MEL-5, 30.8 µM (inactive). Besides, the GI50 in the assay on SNB-75 was 10.1 µM (inactive); with SW-620, 30.7 µM (inactive); in the assay with T47D, 18.5 µM (inactive); in the assay on U-251 it was 37.2 µM (inactive); in the assay with UACC-62 it was 24.1 µM (inactive); in the assay with UO-31 it was 44.1 µM (inactive).
Turning to `CN(CCc1ccc(Cl)c(Cl)c1)[C@H]1CCCC[C@H]1N1CCCC1`, the GI50 was > 100 µM (inactive) in the assay with 786-0; > 100 µM (inactive) with BT-549; > 100 µM (inactive) with CAKI-1; > 100 µM (inactive) in the assay on COLO 205; over 100 µM in the assay on HCT-15; > 100 µM (inactive) in the assay with Hs-578T. The GI50 in the assay with IGROV-1, with KM12, in the assay on LOX IMVI, in the assay on NCI-H226, in the assay with SF-295 and with SK-MEL-2 was > 100 µM (inactive) throughout. The GI50 with SK-MEL-5, in the assay on SW-620, in the assay on T47D, in the assay on U-251, in the assay on UACC-62 and in the assay on UO-31 was > 100 µM (inactive) each time.
For `NC1CCCCC1NCCNC1CCCCC1N` (stereo not drawn), the GI50 in the assay on 786-0 was > 100 µM (inactive); in the assay with BT-549 it was > 100 µM (inactive); in the assay with CAKI-1, 82.4 µM (inactive); with COLO 205 it was 15.9 µM (inactive); with HCT-15, over 100 µM; with Hs-578T it was 44.7 µM (inactive). The GI50 in the assay with IGROV-1 was 75.7 µM (inactive); in the assay with KM12 it was > 100 µM (inactive); with LOX IMVI it was 86.5 µM (inactive); in the assay with NCI-H226 it was > 100 µM (inactive); with SF-295, > 100 µM (inactive); in the assay on SF-539, > 100 µM (inactive). Moreover, the GI50 with SK-MEL-2 was > 100 µM (inactive); in the assay on SK-MEL-5 it was > 100 µM (inactive); with SW-620, 41.6 µM (inactive); in the assay on T47D, > 100 µM (inactive); in the assay on U-251 it was 30.5 µM (inactive); with UACC-62, > 100 µM (inactive). The GI50 in the assay on UO-31 was > 100 µM (inactive).
Consider `COC(=O)/C=C/c1ccc2c(c1)[C@H](C(=O)OC)[C@@H](c1ccc(O)cc1)O2`, for which the GI50 with 786-0 is 30 µM (inactive); in the assay with BT-549 it was 16.8 µM (inactive); with CAKI-1, 45.3 µM (inactive); with COLO 205 it was 25.2 µM (inactive); with HCT-15, 5.02 µM; with Hs-578T it was 31.2 µM (inactive). Further, the GI50 in the assay with IGROV-1 is 27.4 µM (inactive); in the assay on KM12, 19 µM (inactive); in the assay on LOX IMVI it was 18 µM (inactive); with NCI-H226, 55.8 µM (inactive); in the assay on SF-295, 31.4 µM (inactive); with SF-539 it was 44.7 µM (inactive). Moreover, the GI50 is 4.62 µM (inactive) with SK-MEL-2; 14.2 µM (inactive) in the assay with SK-MEL-5; 6.08 µM (inactive) in the assay with SW-620; 28.1 µM (inactive) in the assay on T47D; 21.9 µM (inactive) in the assay on U-251; 20 µM (inactive) in the assay with UACC-62. Moreover, the GI50 in the assay with UO-31 is 28.5 µM (inactive).
With `O=P1(Oc2ccccc2)NCc2ncccc2O1` (stereo not drawn), the GI50 with 786-0 is > 100 µM (inactive); with BT-549 it was > 100 µM (inactive); in the assay on CAKI-1, > 100 µM (inactive); with COLO 205 it was > 100 µM (inactive); in the assay on HCT-15 it was over 100 µM; with IGROV-1, > 100 µM (inactive). Besides, the GI50 in the assay with KM12, in the assay on LOX IMVI, with NCI-H226, in the assay with SF-295, with SF-539 and in the assay with SK-MEL-2 was > 100 µM (inactive) each time. Further, the GI50 in the assay with SK-MEL-5, in the assay on SNB-75, in the assay on SW-620, with T47D, in the assay with U-251 and in the assay on UACC-62 was > 100 µM (inactive) throughout. In the assay with UO-31, the GI50 is > 100 µM (inactive).
For `CCCN1C(=O)/C(=C\c2ccc(OC)c(OC)c2)S/C1=N\c1ccccc1`, the GI50 is 17.5 µM (inactive) in the assay with 786-0; 87.9 µM (inactive) in the assay on BT-549; > 100 µM (inactive) in the assay with CAKI-1; > 100 µM (inactive) with COLO 205; over 100 µM in the assay on HCT-15; 44.4 µM (inactive) with Hs-578T. For the same compound, the GI50 with IGROV-1 was > 100 µM (inactive); in the assay on KM12 it was > 100 µM (inactive); in the assay with LOX IMVI it was > 100 µM (inactive); in the assay on NCI-H226, > 100 µM (inactive); with SF-295, 24.2 µM (inactive); with SF-539, 24.7 µM (inactive). Further, the GI50 in the assay on SK-MEL-2 was 52.8 µM (inactive); in the assay with SK-MEL-5 it was > 100 µM (inactive); in the assay with SW-620 it was > 100 µM (inactive); in the assay on T47D, > 100 µM (inactive); in the assay with U-251, 27.8 µM (inactive); in the assay with UACC-62, > 100 µM (inactive). For the same compound, in the assay on UO-31, the GI50 is > 100 µM (inactive).
Consider `C=C(Cl)C(Cl)(CBr)CCCC(C)C` (stereo not drawn), for which the GI50 was 9.66 µM (inactive) with 786-0; > 85.9 µM (inactive) in the assay with BT-549; 5.81 µM (inactive) with CAKI-1; 19.4 µM (inactive) with COLO 205; over 49.3 µM in the assay with HCT-15; 7.19 µM (inactive) with Hs-578T. For the same compound, the GI50 is > 100 µM (inactive) with IGROV-1; 11.8 µM (inactive) with KM12; > 100 µM (inactive) with LOX IMVI; > 100 µM (inactive) in the assay with NCI-H226; 15.8 µM (inactive) in the assay with SF-295; 9.98 µM (inactive) in the assay with SF-539. In addition, the GI50 with SK-MEL-5 is > 100 µM (inactive); with SNB-75, 8.83 µM (inactive); in the assay with SW-620, 40.1 µM (inactive); with T47D, > 21.2 µM (inactive); with U-251, 8.73 µM (inactive); in the assay on UACC-62 it was > 63.5 µM (inactive). Besides, in the assay on UO-31, the GI50 was 16.3 µM (inactive).
As for `COc1cc2c(cc1C[C@H]1[C@@H]3C[C@H]4c5c(c6ccccc6n5C)C[C@@H]([C@@H]3CO[C@]1(C)OC(C)=O)N4C)c1c(n2C)C2C[C@H]3C(C(C)=O)=COC[C@H]3[C@H](C1)N2C`, the GI50 with 786-0 is 2.86 µM (inactive); in the assay with BT-549, 3.29 µM (inactive); in the assay with CAKI-1, 2.23 µM (inactive); in the assay with COLO 205 it was 3.08 µM (inactive); in the assay on HCT-15, 3.13 µM; with Hs-578T, 2.8 µM (inactive). Also, the GI50 in the assay on IGROV-1 is 7.24 µM (inactive); with KM12, 2 µM (inactive); in the assay on LOX IMVI it was > 25 µM (inactive); in the assay with NCI-H226, 5.46 µM (inactive); in the assay on SF-295, 4.67 µM (inactive); in the assay with SF-539, 2.84 µM (inactive). For the same compound, the GI50 is 4.86 µM (inactive) in the assay on SK-MEL-2; 3.54 µM (inactive) in the assay with SK-MEL-5; 4.13 µM (inactive) in the assay on SW-620; 2.2 µM (inactive) with T47D; 5.57 µM (inactive) in the assay with U-251; 5.11 µM (inactive) in the assay on UACC-62. Moreover, in the assay on UO-31, the GI50 was 6.27 µM (inactive).
For the compound `Oc1cc(-c2cccc(C(F)(F)F)c2)nc2cc3c(cc12)OCO3`, the GI50 in the assay with 786-0 was 2.05 µM (inactive); with BT-549 it was 1.24 µM (inactive); in the assay on CAKI-1, 10.9 µM (inactive); in the assay on COLO 205 it was 8.93 µM (inactive); with HCT-15, 1.38 µM; with Hs-578T, 1.66 µM (inactive). The GI50 in the assay with IGROV-1 is 3.29 µM (inactive); in the assay on KM12, 2.12 µM (inactive); in the assay on SF-539, 1.04 µM (active); in the assay with SK-MEL-2 it was 1.28 µM (inactive); with SNB-75, 1.06 µM (active); in the assay with SW-620, 2.21 µM (inactive). For the same compound, the GI50 in the assay on T47D is > 50 µM (inactive); with U-251, 2.55 µM (inactive); with UACC-62, 1.51 µM (inactive); in the assay on UO-31, 8.89 µM (inactive).
Regarding `NS(=O)(=O)c1nnc(NC(=O)CCC(=O)O)s1`, the GI50 in the assay on 786-0 was > 100 µM (inactive); with BT-549, > 100 µM (inactive); with CAKI-1, > 100 µM (inactive); in the assay with COLO 205, > 100 µM (inactive); with HCT-15, over 100 µM; with Hs-578T it was > 100 µM (inactive). The GI50 in the assay on KM12, with LOX IMVI, with NCI-H226, in the assay on SF-295, in the assay on SF-539 and with SK-MEL-2 was > 100 µM (inactive) each time. The GI50 in the assay with SK-MEL-5, in the assay with SW-620, with T47D, in the assay with U-251, with UACC-62 and in the assay on UO-31 was > 100 µM (inactive) throughout.
